# From US6433019B1, “Neurotrophic factor secretion promoters” (Sumitomo Pharmaceuticals Company, Limited, priority 1998, dated 2002)
# Read-outs that look alike come from different tables or passages of the source.
# Columns and labels:
# [1] = cited from earlier work; for serious side effects: oral administration to human, estimated
# [2] = system: BDNF protein; experiment: BDNF protein in the cells by EIA; type: cell-based, rat; conditions: for BDNF protein in the cells: FIG. 2C
# Protocol: (§1) The following experiment was done in order to confirm the NO production by neural cells, and to clarify which isozyme of three nitric oxide synthase isozymes (References el and e2) (neuronal type; nNOS, endothelial type; eNOS and inducible type; iNOS) is involved with the NO production, The cultured neural cells were prepared by using the neural cells from the cerebral neocortex of rat embryo (E18), and culturing thereof in a serum free medium for 7 days (Reference e3). The supernatant of the culture medium was collected, and the concentration of nitrite was determined, which was used as an index for the total amount of NO production (FIG. 1A). The concentration of nitrite was determined by Griess' method (Reference e4). During the cultivation, the accumulation of nitrite in the supernatant was increased. The expression of NOS in the cultured cells was detected by Western blotting (FIG. 1B). The protein extracted from the cultured cells being electrophoresed on a nitrocellulose membrane was detected by labeling it with 3 anti-NOS antibodies (Transduction Lab., 1/500 to 1000 dilution), treating with peroxidase-labeled anti-IgG antibody, and visualizing by chemical luminescence reaction (ECL kit by Amersham Pharmacia Biotech). In the cultured neural cell sample, the nNOS-like immunoreaction was detected, but eNOS immunoreaction was hardly detected, and further INOS immunoreaction was not detected at all. The product by nNOS immunoreaction as mentioned above has a molecular weight of about 160 kD, which is coincident with that of nNOS as reported in literatures. […]
# (§2) From the finding that the inhibition of NO synthesis in the cultured brain neural cells increased the expression of BDNF gene, it was clarified that endogenous NO affect the regulation of BDNF gene expression. […] SNAP was added to the culture system at various concentrations, and 3 hours and 5 hours thereafter, the BDNF MRNA was determined by quantitative RT-PCR, and the BDNF protein in the cells was determined by EIA, in the same manner as in Example 2.
# [3] = system: BDNF-trkB complex; experiment: BDNF release: sandwich immunoassay of BDNF-trkB complex on the cell surface; type: cell-based, rat; conditions: FIG. 3B
# Text: The effects of an NO donor on the BDNF release were studied in order to clarify the inhibitory effects of SNAP at a high dose on the BDNF protein accumulation. First, the measurement of BDNF concentration in the culture supernatant was tried, but the concentration of BDNF therein was below a detection limitation value of an ordinary EIA, which was considered that the released BDNF immediately combines with the cell surface, even with the trkB receptor. Then, using an anti-pan-trk receptor antibody, a sandwich immunoassay was tried in order to determine the BDNF combined with a trk B receptor on the cell surface.
# [4] = system: BDNF mRNA; experiment: BDNF mRNA by quantitative RT-PCR in cultured brain neural cells; type: cell-based, rat
# Protocol: as §1, §2
# [5] = rats, cited from earlier work
# [6] = system: cultured neural cells from the cerebral neocortex of rat embryo (E18); experiment: NO production (nitrite, Griess' method) in the cultured neural cells; type: cell-based; conditions: 3 hours and 5 hours after addition, FIG. 2A
# Protocol: as §1, with “During the cultivation, the accumulation of nitrite in the supernatant was increased.” left out, “all.” for “all. The product by nNOS immunoreaction as mentioned above has a molecular weight of about 160 kD, which is coincident with that of nNOS as reported in literatures.”
# [7] = system: cultured brain neural cells; experiment: Growth of cultured neural cells (cytotoxicity); type: cell-based, rat; conditions: high dose (1000 μM)
# [8] = compared with other NO donors (Reference e5); cited from earlier work
smiles,measurement,setting,value
"O=[N+]([O-])O[C@H]1CO[C@H]2[C@@H]1OC[C@H]2O[N+](=O)[O-] [ISDN, isosorbide dinitrate]",serious side effects,[1]; dose up to dozens mg per day,does not show serious side effects
N[C@@H](CCC(=O)O)C(=O)O [glutamic acid],BDNF synthesis promoting activity,[2],potent BDNF synthesis promoting activity
same,BDNF secretion promoting activity,[3],did not show a distinguished BDNF secretion promoting activity
COCC(/C(C)=C/C(=N/O)C(N)=O)[N+](=O)[O-] (stereo not shown) [NOR1],expression of BDNF gene,[4]; dose not given,exhibited the same promoting activity
"O=[N+]([O-])O[C@@H]1CO[C@H]2[C@@H]1OC[C@@H]2O [ISMN, isosorbide mononitrate]",LD50,[5]; i.v.,40 mg/kg
same,LD50,[5]; p.o.,1050 to 1550 mg/kg
"CC(=O)NC(C(=O)O)C(C)(C)SN=O (racemic) [SNAP, S-nitroso-N-acetyl-DL-penicillamine]",NO release from the NO donor (nitrite),[6],NO was released from the NO donor
same,expression of BDNF gene,"[4]; lower dose (30 to 300 μM), FIG. 2B",increased dose-dependently
same,expression of BDNF mRNA,"[4]; quite high dose (1000 μM), FIG. 2B",inhibited
same,BDNF protein in the cells,[2]; higher dose than 30 μM,dose-dependent decrease
same,BDNF protein in the cells,[2]; only at 30 μM,increased
same,amount of the BDNF-trkB complex,[3]; dose of 100 μM or more,significantly increased
same,growth of cells,[7],no change in the growth of cells
same,cytotoxicity,[8],weaker than that of other NO donors
N=C(N)NCCC[C@H](N)C(=O)O [arginine],toxicity,[1]; up to 20 g per day of arginine glutamate by intravenous drip,quite low
"O=[N+]([O-])OCC(CO[N+](=O)[O-])O[N+](=O)[O-] [NTG, nitroglycerin]",serious side effects,[1]; dose up to several mg per day,does not show serious side effects
